Data reported in US6720423B2, “Dihydrobenzofuran and dihydrobenzothiophene 2,4-pentadienoic acid derivatives having selective activity for retinoid X (RXR) receptors” (Allergan, Inc., priority 2002, dated 2004).

Assays:
[1] = target: T1, RARβ (Homo sapiens, UniProt P10826); assay: ligand binding assay, RARβ; settings: second entry of cell, read-out: RAR Bind. Ki (nM) β
T1 sequence (P10826 1-455): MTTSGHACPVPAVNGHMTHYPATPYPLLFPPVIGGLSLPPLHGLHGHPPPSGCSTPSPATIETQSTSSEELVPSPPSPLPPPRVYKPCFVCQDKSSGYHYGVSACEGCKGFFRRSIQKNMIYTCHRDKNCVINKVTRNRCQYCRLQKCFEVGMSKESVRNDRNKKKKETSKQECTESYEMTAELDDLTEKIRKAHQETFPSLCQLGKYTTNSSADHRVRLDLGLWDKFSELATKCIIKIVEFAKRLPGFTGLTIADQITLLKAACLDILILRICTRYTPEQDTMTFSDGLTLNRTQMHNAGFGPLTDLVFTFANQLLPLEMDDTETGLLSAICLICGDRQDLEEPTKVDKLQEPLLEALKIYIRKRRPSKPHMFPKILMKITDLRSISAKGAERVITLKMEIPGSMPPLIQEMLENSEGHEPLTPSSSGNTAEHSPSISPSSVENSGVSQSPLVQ
Excerpt: (§1) A holoreceptor transactivation assay and a ligand binding assay which measure the antagonist/agonist like activity of the compounds of the invention, or their ability to bind to the several retinoid receptor subtypes, respectively, are described in published PCT Application No. WO WO93/11755 (particularly on pages 30-33 and 37-41) published on Jun. 24, 1993, the specification of which is also incorporated herein by reference. A detailed experimental procedure for holoreceptor transactivations has been described by Heyman et al. Cell 68, 397-406, (1992); Allegretto et al. J. Biol. Chem. 268, 26625-26633, and Mangelsdorf et al. The Retinoids: Biology, Chemistry and Medicine, pp 319-349, Raven Press Ltd., New York, which are expressly incorporated herein by reference. The results obtained in this assay are expressed in EC50 numbers, as they are also in the chimeric receptor transactivation assay. The results of ligand binding assay are expressed in Kd numbers. (See Cheng et al. Biochemical Pharmacology Vol. 22 pp 3099-3108, expressly incorporated herein by reference.)

[2] = target: T2, RARγ (Homo sapiens, UniProt P13631); assay: ligand binding assay, RARγ; settings: second entry of cell, read-out: RAR Bind. Ki (nM) γ
T2 sequence (P13631 1-454): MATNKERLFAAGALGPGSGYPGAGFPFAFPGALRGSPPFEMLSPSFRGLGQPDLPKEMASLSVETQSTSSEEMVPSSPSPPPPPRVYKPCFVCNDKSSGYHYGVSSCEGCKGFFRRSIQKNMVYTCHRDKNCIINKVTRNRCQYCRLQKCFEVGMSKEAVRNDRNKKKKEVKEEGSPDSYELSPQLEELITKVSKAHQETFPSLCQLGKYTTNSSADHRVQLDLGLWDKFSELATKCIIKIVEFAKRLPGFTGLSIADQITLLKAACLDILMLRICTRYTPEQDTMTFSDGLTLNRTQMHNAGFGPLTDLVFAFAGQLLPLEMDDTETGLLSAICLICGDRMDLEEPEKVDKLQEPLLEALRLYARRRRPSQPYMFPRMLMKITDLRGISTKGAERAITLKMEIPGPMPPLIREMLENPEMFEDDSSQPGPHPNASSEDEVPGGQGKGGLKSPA
Excerpt: as §1

[3] = target: T3, RXRα (Homo sapiens, UniProt P19793); assay: receptor transactivation assay, RXRα; format: cell-based; settings: first entry of cell, read-out: RXR Trans. EC50 (nM) α
T3 construct: the only RXRα plasmid printed
T3 sequence (P19793 227-462 limits assumed): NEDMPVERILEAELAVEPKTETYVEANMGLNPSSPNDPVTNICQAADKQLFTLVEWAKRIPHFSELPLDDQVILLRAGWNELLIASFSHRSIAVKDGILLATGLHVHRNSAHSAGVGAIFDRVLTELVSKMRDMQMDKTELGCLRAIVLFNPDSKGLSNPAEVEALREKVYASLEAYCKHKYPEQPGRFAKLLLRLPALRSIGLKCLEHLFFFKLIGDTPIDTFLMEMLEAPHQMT
Excerpt: as §1

[4] = target: T4, RXRβ (UniProt P28704); assay: ligand binding assay, RXRβ; parameters: other: RXRβ; last entry of cell; settings: last entry of cell, read-out: RXR Bind Ki (nM) β
T4 sequence (P28704 1-520): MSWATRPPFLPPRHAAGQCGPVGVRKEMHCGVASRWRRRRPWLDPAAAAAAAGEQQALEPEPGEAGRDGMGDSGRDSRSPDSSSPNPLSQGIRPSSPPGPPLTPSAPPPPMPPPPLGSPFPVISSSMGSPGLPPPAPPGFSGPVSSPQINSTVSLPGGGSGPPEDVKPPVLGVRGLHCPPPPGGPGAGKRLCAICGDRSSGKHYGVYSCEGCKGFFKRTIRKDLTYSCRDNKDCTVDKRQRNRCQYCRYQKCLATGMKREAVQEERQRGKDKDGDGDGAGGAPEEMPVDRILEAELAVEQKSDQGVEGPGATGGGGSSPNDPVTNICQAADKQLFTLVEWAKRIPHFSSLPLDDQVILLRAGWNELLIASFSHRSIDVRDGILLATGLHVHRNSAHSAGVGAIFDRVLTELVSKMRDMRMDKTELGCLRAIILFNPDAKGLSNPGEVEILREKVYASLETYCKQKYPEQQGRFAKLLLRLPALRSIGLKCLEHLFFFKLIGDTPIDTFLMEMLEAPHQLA
Excerpt: as §1

[5] = target: T5, RXRγ (UniProt P28705); assay: ligand binding assay, RXRγ; parameters: other: RXRγ; last entry of cell; settings: last entry of cell, read-out: RXR Bind Ki (nM) γ
T5 sequence (P28705 1-463): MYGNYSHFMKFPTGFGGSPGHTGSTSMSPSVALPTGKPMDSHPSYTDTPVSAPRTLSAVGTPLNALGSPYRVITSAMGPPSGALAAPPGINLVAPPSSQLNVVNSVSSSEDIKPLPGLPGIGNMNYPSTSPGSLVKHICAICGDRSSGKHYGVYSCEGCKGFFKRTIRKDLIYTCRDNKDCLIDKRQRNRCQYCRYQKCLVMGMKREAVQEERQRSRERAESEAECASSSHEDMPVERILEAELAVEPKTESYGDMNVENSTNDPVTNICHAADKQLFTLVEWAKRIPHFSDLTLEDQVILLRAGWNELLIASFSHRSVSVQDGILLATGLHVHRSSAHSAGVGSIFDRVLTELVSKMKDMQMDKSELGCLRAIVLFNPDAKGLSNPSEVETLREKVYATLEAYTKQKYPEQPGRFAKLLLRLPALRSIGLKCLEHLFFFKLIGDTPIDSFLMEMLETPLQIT
Excerpt: as §1

[6] = target: T5, RXRγ; assay: receptor transactivation assay, RXRγ; format: cell-based; parameters: RXR Trans; other: RXRγ; first entry of cell; settings: for EC50: first entry of cell, read-out: RXR Trans. EC50 (nM) γ; for RXR Trans. γ, number in parentheses after EC50: parenthesised number, not defined in the patent
Excerpt: as §1

Structure (SMILES) | Ki [1] [nM] | Ki [2] [nM] | EC50 [3] [nM] | Ki [4] [nM] | Ki [5] [nM] | EC50 [6] [nM] | RXR Trans. γ, number in parentheses after EC50 [6]
CC(/C=C/[C@@H]1C[C@]1(C)c1cc(CC2CCCCC2)c2c(c1)C(C)(C)CO2)=C\C(=O)O [Compound 16, (6S,7S)-7-[5-(7-Cyclohexylmethyl-3,3-dimethyl-2,3-dihydro-benzofuranyl)]-6,7-methano-3-methyl-octa-2E,4E-dienoic Acid] | 9290 | 12000 | 0.215 | 1.9 | 1.9 | 0.29 | 83
CCCCCCc1cc([C@@]2(C)C[C@H]2/C=C/C(C)=C/C(=O)O)cc2c1OCC2(C)C [Compound 18, (6S,7S)-7-[5-(3,3-Dimethyl-7-hexyl-2,3-dihydro-benzofuranyl)]-6,7-methano-3-methyl-octa-2E,4E-dienoic acid] | 15000 | 9260 | 0.25 | 5.1 | 2 | 0.36 | 99
CC(/C=C/[C@@H]1C[C@]1(C)c1cc(C(C)C)c2c(c1)C(C)(C)CO2)=C\C(=O)O [Compound 8, (6S,7S)-7-[5-(3,3-Dimethyl-7-iso-propyl-2,3-dihydro-benzofuranyl)]-6,7-methano-3-methyl-octa-2E,4E-dienoic Acid] | 41000 | 7510 | 0.159 | 10.6 | 8.6 | 0.23 | 108
CC(/C=C/[C@@H]1C[C@]1(C)c1cc(-c2ccccc2)c2c(c1)C(C)(C)CO2)=C\C(=O)O [Compound 22, 6S,7S)-7-[5-(3,3-Dimethyl-7-phenyl-2,3-dihydro-benzofuranyl)1-6,7-methano-3-methyl-octa-2E,4E-dienoic acid] | > 10000 | > 5260 | 8.3 | 9.6 | 6.2 | 12.8 | 110
CCc1cc([C@@]2(C)C[C@H]2/C=C/C(C)=C/C(=O)O)cc2c1OCC2(C)C [Compound 6] | > 30000 | 13000 | 0.3 | 1.8 | 3.2 | 0.56 | 85
CC(/C=C/[C@@H]1C[C@]1(C)c1cc(-c2c(C)cccc2C)c2c(c1)C(C)(C)CO2)=C\C(=O)O [Compound 24, 5-{(1 S 2S)-2-[7-(2,6-Dimethyl-phenyl)-3,3-dimethyl-2,3-dihydro-benzofuran-5-yl]-2-methyl-cyclopropyl}-3-methyl-penta-2E,4E-dienoic acid] | > 10000 | > 10000 | 0.52 | 2.6 | 4.8 | 0.86 | 105
CCCCCCCc1ccccc1-c1cc([C@@]2(C)C[C@H]2/C=C/C(C)=C/C(=O)O)cc2c1OCC2(C)C [Compound 28] | 3740 | 9540 | 594 | 111 |  | 850 | 88
CC(/C=C/[C@@H]1C[C@]1(C)c1cc(Br)c2c(c1)C(C)(C)CO2)=C\C(=O)O [Compound 20, (6S,7S)-7-[5-(7-Bromo-3,3-dimethyl-2,3-dihydro-benzofuranyl)]-6,7-methano-3-methyl-octa-2E,4E-dienoic Acid] | > 10000 | > 10000 | 2.4 | 21.5 | 40 | 3.4 | 111

Next, values leading:

Ki [1] [nM] | Ki [2] [nM] | EC50 [3] [nM] | Ki [4] [nM] | Ki [5] [nM] | EC50 [6] [nM] | RXR Trans. γ, number in parentheses after EC50 [6] | Structure (SMILES)
> 10000 | > 10000 | 1520 | 441 | 69.9 | > 1000 | 80 | CC(/C=C/[C@@H]1C[C@]1(C)c1cc(-c2ccc(C(C)(C)C)cc2)c2c(c1)C(C)(C)CO2)=C\C(=O)O [Compound 30, 5-{(1S, 2S)-2-[7-(4-tert-Butyl-phenyl)-3,3-dimethyl-2,3-dihydro-benzofuran-5-]-2-methyl-cyclopropyl}-3-methyl-pent-2E,4E-dienoic Acid]
> 10000 | > 10000 | 1950 | 557 | 283 | 7680 | 142 | CCCCC(O)CCc1cc([C@@]2(C)C[C@H]2/C=C/C(C)=C/C(=O)O)cc2c1OCC2(C)C (stereo partly drawn) [Compound 38, (E)-3-((E)-2-{(1S,2S)-2-[7-(3-Hydroxy-heptyl)-3,3-dimethyl-2,3-dihydro-benzofuran-5-yl]-2-methyl-cyclopropyl}-vinyl)-but-2-enoic acid]
> 10000 | > 10000 | 609 | 312 | 602 | 743 | 109 | CC(/C=C/[C@@H]1C[C@@H]1c1ccc2c(c1)C(C)(C)CO2)=C\C(=O)O [Compound 36, (E)-3-{(E)-2-F[(1S,2S)-2-(3,3-Dimethyl-2,3-dihydro-benzofuran-5-yl)-cyclopropyl]-vinyl}-but-2-enoic acid]
8750 | 25000 | 0.37 | 4 | 1.5 | 0.56 | 109 | CC(/C=C/[C@@H]1C[C@]1(C)c1cc(-c2ccc(F)cc2)c2c(c1)C(C)(C)CO2)=C\C(=O)O [Compound 34, (E)-3-((E)-2-{(1S,2S)-2-[7-(4-Fluoro-phenyl)-3,3-dimethyl-2,3-dihydro-benzofuran-5-yl]-2-methyl-cyclopropyl}-vinyl)-but-2-enoic acid]
